Read-outs that look alike come from different tables or passages of the source.
Experiments:
[1] = test system: HEK293 cells; conditions: human
[2] = test system: COS; conditions: African green monkey
[3] = test system: CHO; conditions: Chinese hamster
[4] = Mouse liver microsomal stability; format: in vitro ADME; conditions: liver microsomes, 37 °C
[5] = molecular target: T1, CpIMPDH (Cryptosporidium parvum, UniProt Q8T6T2); experiment: biochemical; format: biochemical; conditions: for inhibition mechanism with respect to NAD+: best fit; for inhibition mechanism with respect to NAD+ / inhibition mechanism with respect to IMP: in words
T1 sequence (Q8T6T2 1-400): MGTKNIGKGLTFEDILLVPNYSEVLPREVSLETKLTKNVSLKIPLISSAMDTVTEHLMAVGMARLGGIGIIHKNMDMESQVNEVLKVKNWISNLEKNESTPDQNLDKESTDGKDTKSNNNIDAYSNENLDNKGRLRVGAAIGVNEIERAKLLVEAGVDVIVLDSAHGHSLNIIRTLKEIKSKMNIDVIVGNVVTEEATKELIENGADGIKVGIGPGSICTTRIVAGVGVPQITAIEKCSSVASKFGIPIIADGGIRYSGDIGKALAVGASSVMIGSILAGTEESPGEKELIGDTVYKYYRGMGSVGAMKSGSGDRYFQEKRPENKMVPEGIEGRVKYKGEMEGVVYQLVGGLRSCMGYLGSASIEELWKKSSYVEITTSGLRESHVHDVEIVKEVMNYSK

[6] = test system: HeLa; conditions: human
[7] = test system: Toxo/CpIMPDH (T. gondii strain that relies on CpIMPDH); experiment: microbe, parasite or virus in culture; format: cell-based, Toxoplasma gondii; conditions: for EC50: Toxoplasma gondii, read-out: EC50 Toxo/CpIMPDH

Structure (SMILES)	LD50 [1]	LD50 [2] [µM]	LD50 [3] [µM]	Ki ([5]; Kis (nM), Substrate IMP) [nM]	inhibition mechanism with respect to NAD+ [5]	inhibition mechanism with respect to IMP [5]	other results
C[C@H](Nc1cccc(Cl)c1Cl)C(=O)Nc1ccc2oc(-c3ccncc3)nc2c1 [15a, (S)-2-(2,3-dichlorophenylamino)-N-(2-(pyridine-4-yl)benzo[d]oxazol-5-yl) propionamide]	> 50 µM	> 50	> 50	–	–	–	–
C[C@H](Oc1cccc(Cl)c1Cl)C(=O)Nc1ccc2nc(-c3ccncc3)oc2c1 [40a, (S)-2-(2,3-dichlorophenoxy)-N-(2-(pyridin-4-yl)benzo[d]oxazol-6-yl)propionamide]	> 50 µM	> 50	> 50	–	–	–	half-life ([4]; t1/2 (min) + NADPH, + NADPH): ≤ 12 min; half-life ([4]; t1/2 (min) − NADPH, − NADPH): ≤ 12 min
CC(Oc1ccc(Cl)cc1Cl)C(=O)Nc1ccc2oc(-c3ccncc3)nc2c1 (stereo not drawn) [compound 1]	–	–	–	58 ± 5	competitive	noncompetitive	Ki ([5]; Kis (nM), Substrate NAD): 33 ± 8 nM
CC(Oc1ccccc1Cl)C(=O)Nc1ccc2oc(-c3ccncc3)nc2c1 (stereo not drawn) [compound 41, 2-(2-chlorophenoxy)-N-(2-(pyridine-4-yl)benzo[d]oxazol-5-yl)propionamide]	~ 12.5 μM	> 50	> 50	–	–	–	LD50 [6]: > 50 µM
COc1ccc(OC(C)C(=O)Nc2ccc3oc(-c4ccncc4)nc3c2)cc1 (stereo not drawn) [compound 44, 2-(4-methoxyphenoxy)-N-(2-(pyridine-4-yl)benzo[d]oxazol-5-yl)propionamide]	> 50 µM	> 50	> 50	–	–	–	–
CC(Oc1cccc(Cl)c1Cl)C(=O)Nc1ccc2oc(-c3ccncc3)nc2c1 (stereo not drawn) [compound 46, 2-(2,3-dichlorophenoxy)-N-(2-(pyridine-4-yl)benzo[d]oxazol-5-yl)propionamide]	> 50 µM	> 50	> 50	–	–	–	selectivity versus Toxo/WT [7]: > 30 fold; EC50 [7]: ≤ 250 nM
CC(Oc1cccc2ccccc12)C(=O)Nc1ccc2oc(-c3ccncc3)nc2c1 (stereo not drawn) [compound 48, 2-(naphthalene-1-yloxy)-N-(2-(pyridine-4-yl)benzo[d]oxazol-5-yl)propionamide]	–	–	–	–	–	–	selectivity versus Toxo/WT [7]: > 30 fold; EC50 [7]: ≤ 250 nM
C[C@H](Oc1cccc(Cl)c1Cl)C(=O)Nc1ccc2oc(-c3ccncc3)nc2c1 [compound 55, (S)-2-(2,3-dichlorophenoxy)-N-(2-(pyridin-4-yl)benzo[d]oxazol-5-yl)propionamide]	–	–	–	–	–	–	half-life ([4]; t1/2 (min) + NADPH, + NADPH): ≤ 12 min; half-life ([4]; t1/2 (min) − NADPH, − NADPH): ≤ 12 min
C[C@H](Oc1cccc([N+](=O)[O-])c1Cl)C(=O)Nc1ccc2oc(-c3ccncc3)nc2c1 [compound 57, (S)-2-(2-chloro-3-nitrophenoxy)-N-(2-(pyridine-4-yl)benzo[d]oxazol-5-yl)propionamide]	> 50 µM	> 50	> 50	–	–	–	–
C[C@H](Oc1cccc(Cl)c1Cl)C(=O)Nc1ccc2oc(-c3cncs3)nc2c1 [compound 62, (S)-2-(2,3-dichlorophenoxy)-N-(2-(thiazol-5-yl)benzo[d]oxazol-5-yl)propionamide]	–	–	–	–	–	–	half-life ([4]; t1/2 (min) + NADPH, + NADPH): ≤ 12 min; half-life ([4]; t1/2 (min) − NADPH, − NADPH): ≤ 12 min
C[C@H](Oc1cccc2ccccc12)C(=O)Nc1ccc2oc(-c3cncs3)nc2c1 [compound 63, (S)-2-(naphthalene-1-yloxy)-N-(2-(thiazol-5-yl)benzo[d]oxazol-5-yl)propionamide]	–	–	–	1.6 ± 0.7	competitive	noncompetitive	Ki ([5]; Kis (nM), Substrate NAD): 0.9 ± 0.3 nM
C[C@H](Oc1cccc(Cl)c1Cl)C(=O)Nc1cc(Cl)c2oc(-c3ccncc3)nc2c1 [compound 68, (S)-N-(7-chloro-2-(pyridin-4-yl)benzo[d]oxazol-5-yl)-2-(2,3-dichlorophenoxy)propionamide]	–	–	–	210 ± 10	competitive	noncompetitive	Ki [5]: 150 ± 30 nM
C[C@@H](C(=O)Nc1ccc2oc(-c3ccncc3)nc2c1)c1ccccc1 [compound 72, (R)-2-phenyl-N-(2-(pyridine-4-yl)benzo[d]oxazol-5-yl)propionamide]	–	–	–	100 ± 20	competitive	noncompetitive	Ki ([5]; Kis (nM), Substrate NAD): 40 ± 10 nM
